Measurements as given in patent publication US11713302B2, “Sulfonamide benzamide derivative and preparation method and application thereof” (WEIFANG MEDICAL UNIVERSITY, priority 2021, dated 2023).
Where two headings read alike, the source gives them in different places.

Assays:
HepAD38 cells = experiment: Cytotoxicity assay (CCK-8) in HepAD38 cells; type: cell-based; conditions: CCK-8, 10 days
Protocol: (§1) HBV stably transfected hepatocellular carcinoma cell line, HepAD38, was able to secrete HBV viral particles (containing HBsAg, HBeAg and DNA) when the cells were cultured. The amount of HBsAg and HBeAg secreted by the cells and the DNA produced varied under the intervention of anti-HBV target compounds, so the antiviral activity of the sample drug could be calculated by measuring the amount of HBsAg and HBeAg secreted by the cells into the culture supernatant and the HBV DNA produced, with reference to the amount in the unspiked control. Using entecavir as a positive control drug, the concentration of the drug at 50% inhibition of HBV DNA was measured by quantitative PCR at the value of IC50; the concentration of the sample drug causing 50% cell death was measured by CCK-8 at the value of CC50, and the “selectivity index” of the compound to be tested was calculated. SI=CC50/IC50. (1) Cytotoxicity assay
(§2) Each sample was prepared with HepAD38 cell culture medium at a diluted concentration (1 μM) for preliminary activity screening, and a blank control was set up and a positive control drug was added to the 96-well cell culture plate with 3 replicate wells per concentration, and the same concentration was changed every 2 days and a drug-free cell control group was set up for 10 days. Cell viability was measured by CCK-8 assay to determine the toxicity of the drug to HepAD38 cells. Five dilutions (10 μM, 2 μM, 0.4 μM, 0.08 μM and […]) were prepared in HepAD38 cell culture medium for compounds with low toxicity, and a blank control and entecavir and lead compound 5a were used as positive control drugs. Cell culture plates were added to 96-well plates with 3 replicate wells per concentration, and the same concentration was changed every 2 days and a drug-free cell control group was set up for 10 days. Cell viability was measured by CCK-8 assay to determine the toxicity of the drug on HepAD38 cells.

[1] = Cytotoxicity assay (CCK-8) in HepAD38 cells; type: cell-based; conditions: human
Protocol: as §1, §2

HBV DNA = HBV DNA activity inhibition assay (quantitative PCR) in HepAD38 cells; type: cell-based, hepatitis B virus (HBV)
Protocol: as §1
(2) HBV DNA Activity Inhibition Assay (Quantitative PCR Method)
HepAD38 cells were cultured in 96-well cell culture plate for 24 hours, then 10 μM, 2 μM, 0.4 μM, 0.08 μM and […] drug-containing medium was added and the cells were incubated for 10 days (changed every 2 days), the supernatant was collected and the supernatant HBV DNA content was measured by quantitative PCR.

[2] = Hepatitis B virus, 240 h, supernatant HBV DNA, HepAD38 cells, quantitative PCR, 10 days, read-out: EC50
[3] = Hepatitis B virus, 240 h, supernatant HBV DNA, HepAD38 cells, quantitative PCR, 10 days, read-out: IC90
[4] = Hepatitis B virus, HePAD38, 240 h

Row | SMILES | CC50 (HepAD38 cells) [µM] | CC50 at 10 days ([1]; CCK-8) [µM] | EC50 (HBV DNA; [2]) [µM] | IC90 (HBV DNA; [3]) [µM] | inhibition of HBV DNA replication activity (initial screening) (HBV DNA; quantitative PCR) | IC50 (HBV DNA; Hepatitis B virus, HePAD38, quantitative PCR, read-out: IC50 (anti-HBV DNA replication activity)) [µM] | CC50 at 10 days ([1]; CCK-8, 10 days) [µM] | EC50 (HBV DNA; [4]) [µM] | IC90 (HBV DNA; [4]) [µM]
1 | O=C(Nc1ccc(F)c(Cl)c1)c1cc(S(=O)(=O)NC2CCCC2)cc2c1OCCO2 [Compound 5b] | > 10 | > 10 | 0.00252 | 0.293 | good HBV DNA replication inhibitory activity | – | – | – | –
2 | O=C(Nc1ccc(F)c(Cl)c1)c1cc(S(=O)(=O)NC2CCCCC2)cc2c1OCCO2 [Compound 5c] | > 10 | > 10 | 0.0149 | 0.43 | good HBV DNA replication inhibitory activity | – | – | – | –
3 | CC(C)NS(=O)(=O)c1cc2c(c(C(=O)Nc3ccc(F)c(Cl)c3)c1)OCCO2 [Compound 5k] | > 10 | > 10 | 0.00096 | 0.099 | good HBV DNA replication inhibitory activity | 0.00096 | – | – | –
4 | C=C1[C@H](CO)[C@@H](O)C[C@@H]1n1cnc2c(=O)[nH]c(N)nc21 [ETV, entecavir, reference compound] | – | – | – | – | – | – | > 10 | 0.000121 | 0.021
